# Measured values taken from patent publication US4151300A, “Acetohydroxamic acids” (Laboratoire L. Lafon, priority 1976, dated 1979).
# What was measured:
# central nervous system [1] = details: prior art; cited from earlier work
# mice [2] = test: toxicity (isolated mice, intraperitoneal); assay type: in vivo
# Experimental: (§1) The following text summarises a part of the results of the tests which were carried out with the products according to the invention, these products (unless otherwise stated) being administered intraperitoneally, in suspension in a gum solution (gum arabic), in a volume of 20 ml/kg in the case of mice and of 5 ml/kg in the case of rats.
# rats [3] = test: interaction with apomorphine (stereotype behaviour in rats); assay type: in vivo; details: rats, i.p.
# Experimental: as §1
# Batches of six rats are each given a subcutaneous injection of apomorphine (0.5 mg/kg) 30 minutes after the administration of CRL 40,373.
# Batches of 6 rats are given a subcutaneous injection of 0.5 mg/kg of apomorphine 30 minutes after the administration of CRL 40,385.
# rats [4] = test: interaction with amphetamine (stereotypies in rats); assay type: in vivo; details: i.p.
# Experimental: as §1
# 30 minutes after the administration of CRL 40,373, amphetamine is injected intraperitoneally at a dose of 2 mg/kg.
# Thirty minutes after the administration of CRL 40,385 the rats are given an intraperitoneal injection of 2 mg/kg of amphetamine (6 animals per dose).
# mice [5] = test: interaction with reserpine (hypothermia, ptosis); assay type: in vivo; details: i.p.; for reserpine-induced hypothermia: 512 mg/kg
# mice [6] = test: interaction with oxotremorine (temperature, trembling, peripheral cholinergic symptoms); assay type: in vivo; details: mice, i.p.
# mice [7] = test: spontaneous motility (actimeter); assay type: in vivo; details: for spontaneous motility: i.p.
# Experimental: as §1
# Thirty minutes after having been given CRL 40,373, the mice (6 per dose, 12 comparison animals) are placed in an actimeter, where their motility is recorded for half an hour.
# Thirty minutes after having been given CRL 40,385, the mice are placed in actimeters where their motility is recorded for half an hour.
# mice [8] = test: motility reduced by habituation to a cage (residual motility); assay type: in vivo; details: i.p.
# Experimental: as §1
# Mice which have remained for 18 hours in the actimeters are given CRL 40,373. They are immediately replaced in their cages and, after a period of half an hour, their motility is recorded for 30 minutes (6 animals per dose, 12 comparison animals).
# After remaining for 18 hours in the actimeters, the mice receive CRL 40,385. Immediately afterwards they are replaced in their cage and half an hour afterwards the recording of the motility starts and is continued for 30 minutes.
# mice [9] = test: motility reduced by hypoxia treatment (motor recovery); assay type: in vivo; details: for motor recovery after hypoxia/anoxia by pressure reduction: mice, i.p.
# mice [10] = test: inter-group aggressiveness (number of fights); assay type: in vivo
# Experimental: as §1
# After three weeks' residence in each of the halves of a cage divided by an opaque partition, the mice receive CRL 40,373 thirty minutes before being brought together by withdrawing the partition.
# After 18 days' residence on either side of a partition separating their cage in the middle, groups of 3 mice receive CRL 40,385 and are brought together half an hour later by withdrawing the partition, and the number of fights which take place in the course of 15 minutes is noted.
# central nervous system [11] = test: psychopharmacological study / behaviour; assay type: in vivo, mice; details: high dose (256 mg/kg)
structure (smiles),measurement,setting,value
O=C(CCC[S+]([O-])c1ccccc1)NO (centres unmarked) [4-phenylsulphinylbutyrohydroxamic acid],usefulness in therapy,central nervous system [1],of interest in the treatment of the central nervous system
"O=C(CNC(=O)C(c1ccccc1)c1ccccc1)NO [CRL 40,400, α-(Benzhydrylcarboxamido)-acetohydroxamic acid]",mortality,"mice [2]; isolated mice, i.p., 128, 256, 512 and 1,024 mg/kg",does not cause any mortality whatsoever
same,apomorphine-induced stereotypies,rats [3],does not modify the stereotypies induced in rats by apomorphine
same,amphetamine-induced stereotypies,rats [4]; rats,does not modify the stereotypies induced in rats by apomorphine and amphetamine
same,stereotypies induced by reserpine,mice [5],does not modify the stereotypies
same,stereotypies induced by oxotremorine,mice [6],does not modify the stereotypies
same,motility,mice [7]; mice,acts on the motility of mice
"CCC(C(=O)NO)C(=O)N(c1ccccc1)c1ccccc1 (centres unmarked) [CRL 40,439, 2-(N,N-Diphenylcarbamoyl)-butyrohydroxamic acid]",LD-O (maximum non-lethal dose),"mice [2]; mice, i.p.","greater than 1,024 mg/kg"
same,symptoms / behaviour,"mice [2]; mouse, in vivo, ip, 128 mg/kg",none of these symptoms is observed
same,reserpine-induced ptosis,mice [5],does not affect reserpine-induced ptosis
same,reserpine-induced hypothermia,mice [5],"increases, at a dose of 512 mg/kg, the hypothermia-inducing effect of reserpine"
same,oxotremorine-induced trembling,mice [6],moderately reduces the intensity of the trembling movements due to oxotremorine
same,temperature (oxotremorine-induced hypothermia),mice [6]; 512 mg/kg,"increases, at a dose of 512 mg/kg, the hypothermia-inducing effect of reserpine and of oxotremorine"
same,spontaneous motility,"mice [7]; mice, 512 mg/kg",very great reduction in the spontaneous motility
same,motility reduced by habituation to the cage,mice [8]; 128 mg/kg,causes a resumption of the motor activity in animals habituated to their cage
same,motor recovery after hypoxia/anoxia by pressure reduction,mice [9],does not improve the motor recovery
same,inter-group aggressiveness,"mice [10]; mice, i.p.",moderately reduces the inter-group aggressiveness in mice
O=C(CCC[S+]([O-])c1ccc(Cl)cc1)NO (centres unmarked) [4-(p-chlorophenylsulphinyl)-butyrohydroxamic acid],usefulness in therapy,central nervous system [1],of interest in the treatment of the central nervous system
"COc1cc(NC(=O)CC(=O)NO)cc(OC)c1OC [CRL 40,509, 3,4,5-Trimethoxyphenyl-carbamoyl-acetohydroxamic acid]",anti-anoxia effect,mice [9]; 64 and 128 mg/kg,an effect of the anti-anoxia type
same,anti-aggressive effect,mice [10]; very low doses (8 and 16 mg/kg),an effect of the anti-aggressive type
same,sedation,central nervous system [11],sedation
"CCC1(c2ccccc2)NC(=O)N(CC(=O)NO)C1=O (centres unmarked) [CRL 40,450, 3-(5-Ethyl-5-phenyl-hydantoinyl)-acetohydroxamic acid]",LD-O (maximum non-lethal dose),"mice [2]; mice, i.p.","greater than 1,024 mg/kg"
same,reserpine-induced hypothermia,mice [5],aggravates the hypothermia induced by reserpine
same,temperature (oxotremorine-induced hypothermia),mice [6]; 512 mg/kg,aggravates the hypothermia induced by reserpine and by oxotremorine
same,oxotremorine-induced trembling,mice [6]; high dose (512 mg/kg),reduces the intensity of the trembling movements due to oxotremorine
same,spontaneous motility,"mice [7]; mice, 512 mg/kg",reduction in the spontaneous motility of mice
same,inter-group aggressiveness,"mice [10]; mice, i.p., 512 and 256 mg/kg",reduces the inter-group aggressiveness in mice
"O=C(C[S+]([O-])Cc1cccc2ccccc12)NO (stereo not drawn) [CRL 40,475, α-Naphthylmethylene-sulphinyl-acetohydroxamic acid]",LD-O (maximum non-lethal dose),"mice [2]; mice, i.p.","greater than 1,024 mg/kg"
"O=C(CN1C(=O)NC(c2ccc(Cl)cc2)(c2ccc(Cl)cc2)C1=O)NO [CRL 40,468, 3-(5,5-di-p-chlorophenyl-hydantoinyl)-acetohydroxamic acid]",mortality,"mice [2]; mouse, in vivo",found dead 24 hours after the injection
same,mortality,"mice [2]; mouse, in vivo, ip, 512 mg/kg",no mortality is observed
same,symptoms / behaviour,"mice [2]; mouse, in vivo, ip, 512 mg/kg",the symptoms are comparable
same,aggressiveness,"mice [10]; mice, i.p., large/high dose",reduces the number of fights
O=C(CC[S+]([O-])c1ccc(F)cc1)NO (centres unmarked) [3-(p-fluorophenylsulphinyl)-propionohydroxamic acid],usefulness in therapy,central nervous system [1],of interest in the treatment of the central nervous system
O=C(CCC[S+]([O-])C(c1ccccc1)c1ccccc1)NO (centres unmarked) [4-benzhydrylsulphinyl-butyrohydroxamic acid],usefulness in therapy,central nervous system [1],of interest in the treatment of the central nervous system
"O=C(CC(=O)N(C1CCCCC1)C1CCCCC1)NO [CRL 40,446, N,N-(Dicyclohexyl)-carbamoylacetohydroxamic acid]",mortality,"mice [2]; mouse, in vivo",does not cause any mortality whatsoever
same,reserpine-induced ptosis,mice [5],ptosis induced by reserpine is not affected
same,reserpine-induced hypothermia,mice [5],partially antagonises hypothermia induced by reserpine
same,spontaneous motility,"mice [7]; mice, 128 and 512 mg/kg",reduces the spontaneous motility in mice
same,motility reduced by habituation to the cage,mice [8],does not cause any resumption in the motor activity of mice
same,motor recovery after hypoxia/anoxia by pressure reduction,mice [9],does not cause any resumption in the motor activity of mice
same,inter-group aggressiveness,"mice [10]; mice, i.p.","reduces, to a moderate degree, inter-group aggressiveness in mice"
"O=C(CC(=O)Nc1ccc(Cl)c(Cl)c1)NO [CRL 40,491, 3,4-Dichlorophenylcarbamoylacetohydroxamic acid]",LD-O (maximum non-lethal dose),"mice [2]; mice, i.p.","greater than 1,024 mg/kg"
same,mortality,"mice [2]; mice, i.p., 1,024 mg/kg, 24 hours after administration",no mortality 24 hours after administration
same,amphetamine-induced stereotypies,rats [4]; 256 mg/kg,reduces the intensity of amphetamine-induced stereotypies
same,spontaneous motility,"mice [7]; mice, 512 mg/kg",reduction in the spontaneous motility of mice
same,motility reduced by habituation to the cage,mice [8]; 256 mg/kg,moderate resumption of the activity of mice habituated to their cage
same,inter-group aggressiveness,"mice [10]; mice, i.p., 256 mg/kg",reduces the inter-group aggressiveness of mice
"O=C(C[S+]([O-])Cc1ccc(Cl)cc1)NO (stereo not drawn) [CRL 40,411, α-(Chlorobenzylsulphinyl)-acetohydroxamic acid]",LD-O (maximum non-lethal dose),"mice [2]; mice, i.p.","greater than 1,024 mg/kg"
O=C(CC[S+]([O-])C(c1ccccc1)c1ccccc1)NO (centres unmarked) [3-benzhydrylsulphinyl-propionohydroxamic acid],usefulness in therapy,central nervous system [1],of interest in the treatment of the central nervous system
"O=C(CC(=O)Nc1ccc(Cl)cc1)NO [CRL 40,464, N-(4-Chlorophenyl)-carbamoyl-acetohydroxamic acid]",LD-O (maximum non-lethal dose),"mice [2]; mice, i.p.","greater than 1,024 mg/kg"
same,amphetamine-induced stereotypies,rats [4]; 256 mg/kg,reduces the intensity of amphetamine-induced stereotypies
same,oxotremorine-induced trembling,mice [6],moderately reduces the intensity of the trembling movements
same,temperature (oxotremorine-induced hypothermia),mice [6],aggravates the hypothermia due to oxotremorine
same,spontaneous motility,mice [7],reduces the spontaneous motility in mice
same,motility reduced by habituation to the cage,mice [8]; 128 mg/kg,causes a resumption of the motor activity in animals habituated to their cage
O=C(CCC[S+]([O-])c1ccc(F)cc1)NO (centres unmarked) [4-(p-fluorophenylsulphinyl)-butyrohydroxamic acid],usefulness in therapy,central nervous system [1],of interest in the treatment of the central nervous system
O=C(CC(O)COc1cccc2ccccc12)NO (stereo not drawn) [4-α-naphthyloxy-3-hydroxybutyrohydroxamic acid],usefulness in therapy,central nervous system [1],inactive in therapy
"O=C(CNC(=O)Nc1ccccc1)NO [CRL 40,513, 5-Phenylureidoacetohydroxamic acid]",LD-O (maximum non-lethal dose),"mice [2]; mouse, in vivo, ip","greater than 1,024 mg/kg"
same,symptoms / behaviour,"mice [2]; mouse, in vivo, ip",sedation and hypothermia
same,motor recovery after hypoxia/anoxia by pressure reduction,mice [9],improvement in the motor recovery of mice
same,inter-group aggressiveness,"mice [10]; mice, i.p.",anti-aggressive effect
"CC(C(=O)NO)N1C(=O)NC(c2ccccc2)(c2ccccc2)C1=O (centres unmarked) [CRL 40,447, 2-[3-(5,5-Diphenylhydantoinyl)]-propionohydroxamic acid]",LD-O (maximum non-lethal dose),"mice [2]; mouse, in vivo, ip","greater than 1,024 mg/kg"
same,spontaneous motility,"mice [7]; mice, 512 mg/kg",reduces the spontaneous motility of mice
O=C(C[S+]([O-])C(c1ccccc1)c1ccccc1)NO (stereo not drawn) [β-benzhydrylsulphinyl-acetohydroxamic acid],usefulness in therapy,central nervous system [1],of interest in the treatment of the central nervous system
"O=C(Cc1nc2ccccc2n1-c1ccccc1)NO [CRL 40,490, 2-(1-Phenyl-benzimidazolyl)-acetohydroxamic acid]",LD-O (maximum non-lethal dose),"mice [2]; mice, i.p.","greater than 1,024 mg/kg"
